# Data as given in article PMC12349723, “Computationally accelerated identification of P-glycoprotein inhibitors” (PLOS One, 2025).
# Where “and” joins values, the source holds several entries; their conditions need not be identical. Equal values may be shown once. Read-outs that look alike come from different tables or passages of the source.
# Assays:
# [1] = test system: DU145 cells; assay: MTT viability assay, non-P-gp overexpressing DU145 parental line, with or without PTX; type: cell-based, human; settings: for Sensitization of DU145 cells to PTX: 15 µM compound + PTX vs PTX alone; for % Survival, Mean, 15 µM compound + 500 nM PTX / % Survival, 15 µM Compound alone (individual samples) / viability at 15 µM / % Survival, 15 µM compound + 500 nM PTX (individual samples): DU145 cells, 48 h; for viability at 15 µM: Homo sapiens, DU-145, 48 h
# Procedure, shortened: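 Viability by MTT reduction (A570, DMSO-solubilized formazan) after 48 h compound treatment ± PTX at 37 °C, 5% CO2. Parental, non-P-gp-overexpressing DU145 seeded at 3,000 cells/well; percent survival normalized to vehicle-treated or vehicle-plus-PTX controls.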
# [2] = target: T1, P-gp (Homo sapiens, UniProt P08183); assay: LC-MS/MS intracellular accumulation assay with or without tariquidar (P-gp transport substrate test) in DU145-TXR cells; type: in vitro ADME; settings: for P-gp transport substrate assessment / Intracellular accumulation (normalized ratio of compound to internal standard), Trial 1, + TQR / Intracellular accumulation (normalized ratio of compound to internal standard), Trial 2, + TQR / Intracellular accumulation (normalized ratio of compound to internal standard), Trial 1, - TQR / Intracellular accumulation (normalized ratio of compound to internal standard), Trial 2, - TQR: DU145-TXR, 2.5 h; for P-gp transport substrate assessment: 5 µM compound with or without 500 nM tariquidar, LC-MS/MS; for Intracellular accumulation (normalized ratio of compound to internal standard), Trial 1, + TQR / Intracellular accumulation (normalized ratio of compound to internal standard), Trial 2, + TQR / Intracellular accumulation (normalized ratio of compound to internal standard), Trial 1, - TQR / Intracellular accumulation (normalized ratio of compound to internal standard), Trial 2, - TQR: 5 µM compound, mean ± SD, triplicate; for Intracellular accumulation (normalized ratio of compound to internal standard), Trial 1, + TQR / Intracellular accumulation (normalized ratio of compound to internal standard), Trial 2, + TQR: with 500 nM tariquidar; for Intracellular accumulation (normalized ratio of compound to internal standard), Trial 1, - TQR / Intracellular accumulation (normalized ratio of compound to internal standard), Trial 2, - TQR: without tariquidar; for P (- TQR vs + TQR), Trial 1 / P (- TQR vs + TQR), Trial 2: Student's T test of the mean; for Significance of accumulation with tariquidar, Trial 1 / Significance of accumulation with tariquidar, Trial 2: significant difference = likely P-gp transport substrate
# T1 construct: The MDR, P-gp overexpressing DU145-TXR cells were maintained under positive selection pressure; endogenous in cells; host or cells: DU145-TXR (paclitaxel-resistant sub-line of DU145 human prostate cancer cells)
# T1 sequence (P08183 whole entry): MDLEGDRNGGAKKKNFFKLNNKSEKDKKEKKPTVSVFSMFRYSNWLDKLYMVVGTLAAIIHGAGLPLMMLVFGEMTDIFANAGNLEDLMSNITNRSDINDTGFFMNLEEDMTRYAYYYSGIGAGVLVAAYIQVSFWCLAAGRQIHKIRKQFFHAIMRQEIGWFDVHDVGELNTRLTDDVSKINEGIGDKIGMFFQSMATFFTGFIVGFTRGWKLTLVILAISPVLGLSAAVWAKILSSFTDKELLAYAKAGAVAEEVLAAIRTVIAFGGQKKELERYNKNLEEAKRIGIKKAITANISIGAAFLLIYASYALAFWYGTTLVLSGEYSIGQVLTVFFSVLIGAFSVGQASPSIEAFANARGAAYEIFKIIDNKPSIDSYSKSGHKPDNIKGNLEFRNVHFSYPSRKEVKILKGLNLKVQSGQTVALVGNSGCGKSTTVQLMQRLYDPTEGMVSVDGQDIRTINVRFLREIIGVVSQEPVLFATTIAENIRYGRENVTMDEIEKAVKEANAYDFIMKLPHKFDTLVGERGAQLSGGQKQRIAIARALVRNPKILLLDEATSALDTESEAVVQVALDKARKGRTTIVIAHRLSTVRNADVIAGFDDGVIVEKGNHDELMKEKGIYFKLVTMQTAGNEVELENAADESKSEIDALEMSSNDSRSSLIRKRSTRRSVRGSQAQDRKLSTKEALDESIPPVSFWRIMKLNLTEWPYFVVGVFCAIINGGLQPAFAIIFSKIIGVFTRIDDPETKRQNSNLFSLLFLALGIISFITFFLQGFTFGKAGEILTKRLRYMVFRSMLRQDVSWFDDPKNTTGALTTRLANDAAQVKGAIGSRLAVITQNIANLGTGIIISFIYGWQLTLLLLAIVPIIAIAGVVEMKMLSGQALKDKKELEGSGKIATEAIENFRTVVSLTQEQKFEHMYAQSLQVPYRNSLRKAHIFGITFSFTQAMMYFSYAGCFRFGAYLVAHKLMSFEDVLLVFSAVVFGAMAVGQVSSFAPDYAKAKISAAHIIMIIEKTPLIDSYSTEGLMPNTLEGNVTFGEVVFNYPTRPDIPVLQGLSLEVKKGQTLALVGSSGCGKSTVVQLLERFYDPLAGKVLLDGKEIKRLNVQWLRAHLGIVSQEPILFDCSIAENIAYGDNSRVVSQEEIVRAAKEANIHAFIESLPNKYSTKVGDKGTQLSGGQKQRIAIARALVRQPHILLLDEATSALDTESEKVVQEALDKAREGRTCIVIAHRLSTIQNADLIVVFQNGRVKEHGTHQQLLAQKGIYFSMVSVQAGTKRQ
# Procedure, shortened: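 Analyte peak area normalised to internal standard and to lysate protein (BSA curve); relative accumulation compared between −/+ TQR by Student's t-test. Daunorubicin served as P-gp substrate positive control.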
# [3] = single samples, 2 trials x 4 samples
# [4] = mean of 8 samples, read-out: % Survival, Mean, 15 µM Compound alone
"Intracellular accumulation (normalized ratio of compound to internal standard), Trial 1, + TQR [2]","Intracellular accumulation (normalized ratio of compound to internal standard), Trial 2, + TQR [2]","Intracellular accumulation (normalized ratio of compound to internal standard), Trial 1, - TQR [2]","Intracellular accumulation (normalized ratio of compound to internal standard), Trial 2, - TQR [2]",Structure (SMILES),Sensitization of DU145 cells to PTX [1],"% Survival, Mean, 15 µM compound + 500 nM PTX ([1]; mean of 8 samples)","% Survival, 15 µM Compound alone (individual samples) [1, 3]","viability at 15 µM [1, 4]","viability at 15 µM ([1]; single samples, 2 trials x 4 samples, read-out: % Survival, 15 µM Compound alone (individual samples))",P-gp transport substrate assessment [2],"P (- TQR vs + TQR), Trial 1 [2]","P (- TQR vs + TQR), Trial 2 [2]","Significance of accumulation with tariquidar, Trial 1 [2]","Significance of accumulation with tariquidar, Trial 2 [2]","% Survival, 15 µM compound + 500 nM PTX (individual samples) [1, 3]"
0.013 ± 0.004,0.013 ± 0.001,0.012 ± 0.002,0.011 ± 0.002,"Cc1onc(-c2ccccc2)c1-c1nnc(Cn2cnc3ccccc3c2=O)o1 [Compound 111, Cc1onc(c1-c1nnc(Cn2cnc3ccccc3c2=O)o1)-c1ccccc1]",insignificantly sensitize DU145 cells to PTX,19.3%,72%,73.5%,80%,unlikely to be transport substrates of P-gp,0.7,0.2,N.S. (P > 0.05 = not significant (N.S.)),N.S. (P > 0.05 = not significant (N.S.)),
0.001 ± 0.000,0.001 ± 0.000,0.001 ± 0.000,0.001 ± 0.000,"Cc1onc(-c2ccccc2)c1-c1nnc(Cn2cnc3c(oc4ccccc43)c2=O)o1 [Compound 78, Cc1onc(c1-c1nnc(Cn2cnc3c4ccccc4oc3c2=O)o1)-c1ccccc1]",insignificantly sensitize DU145 cells to PTX,33.6%,94%,89.2%,,unlikely to be transport substrates of P-gp,,,,,31%

Structure (SMILES),"Intracellular accumulation (normalized ratio of compound to internal standard), Trial 1, + TQR [2]","Intracellular accumulation (normalized ratio of compound to internal standard), Trial 2, + TQR [2]","Intracellular accumulation (normalized ratio of compound to internal standard), Trial 1, - TQR [2]","Intracellular accumulation (normalized ratio of compound to internal standard), Trial 2, - TQR [2]",Sensitization of DU145 cells to PTX [1],"% Survival, Mean, 15 µM compound + 500 nM PTX ([1]; mean of 8 samples)","% Survival, 15 µM Compound alone (individual samples) [1, 3]","viability at 15 µM [1, 4]","viability at 15 µM ([1]; single samples, 2 trials x 4 samples, read-out: % Survival, 15 µM Compound alone (individual samples))",P-gp transport substrate assessment [2],"P (- TQR vs + TQR), Trial 1 [2]","P (- TQR vs + TQR), Trial 2 [2]","Significance of accumulation with tariquidar, Trial 1 [2]","Significance of accumulation with tariquidar, Trial 2 [2]","% Survival, 15 µM compound + 500 nM PTX (individual samples) [1, 3]"
"O=C(c1nc(-c2ccccn2)no1)N1CCN(c2nsc3ccccc23)CC1 [Compound 124, O=C(N1CCN(CC1)c1nsc2ccccc12)c1nc(no1)-c1ccccn1]",0.061 ± 0.011,0.055 ± 0.009,0.006 ± 0.001,0.007 ± 0.002,insignificantly sensitize DU145 cells to PTX,20.9%,85%,76.9%,,potential P-gp transport substrates,0.001,0.0008,** (P < 0.01 = **),*** (P < 0.001 = ***),17% and 26%
